Data on 19 molecules can be found in US20140243273A1, “METHODS FOR TREATING INFLAMMATORY DISEASES AND PHARMACEUTICAL COMBINATIONS USEFUL THEREFOR” (Vertex Pharmaceuticals Incorporated, priority 2011, published 2014).

The target in one assay is JAK2 (Homo sapiens, UniProt O60674). Briefly: JAK2 Inhibition Assay. The note with it: 5 nM JAK-2 enzyme, 15 μM poly(Glu)4Tyr, 12 μM ATP; kind of constant not given. The format is biochemical. The protocol: [The procedure below names another target; the source says it served here with some conditions changed.] (§1) Compounds were screened for their ability to inhibit JAK3 using the assay shown below. Reactions were carried out in a kinase buffer containing 100 mM HEPES (pH 7.4), 1 mM DTT, 10 mM MgCl2, 25 mM NaCl, and 0.01% BSA. Substrate concentrations in the assay were 5 μM ATP (200 uCi/μmole ATP) and 1 μM poly(Glu)4Tyr. Reactions were carried out at 25° C. and 1 nM JAK3.
(§2) To each well of a 96 well polycarbonate plate was added 1.5 μl of a compound of Formula I along with 50 μl of kinase buffer containing 2 μM poly(Glu)4Tyr and 10 μM ATP. This was then mixed and 50 μl of kinase buffer containing 2 nM JAK3 enzyme was added to start the reaction. After 15 minutes at room temperature (25° C.), the reaction was stopped with 50 μl of 20% trichloroacetic acid (TCA) that also contained 0.4 mM ATP. The entire contents of each well were then transferred to a 96 well glass fiber filter plate using a TomTek Cell Harvester. After washing, 60 μl of scintillation fluid was added and ^33P incorporation detected on a Perkin Elmer TopCount.

The target of the next assay is T1, JAK3 (Homo sapiens, UniProt P52333).
T1 sequence (P52333 1-1124): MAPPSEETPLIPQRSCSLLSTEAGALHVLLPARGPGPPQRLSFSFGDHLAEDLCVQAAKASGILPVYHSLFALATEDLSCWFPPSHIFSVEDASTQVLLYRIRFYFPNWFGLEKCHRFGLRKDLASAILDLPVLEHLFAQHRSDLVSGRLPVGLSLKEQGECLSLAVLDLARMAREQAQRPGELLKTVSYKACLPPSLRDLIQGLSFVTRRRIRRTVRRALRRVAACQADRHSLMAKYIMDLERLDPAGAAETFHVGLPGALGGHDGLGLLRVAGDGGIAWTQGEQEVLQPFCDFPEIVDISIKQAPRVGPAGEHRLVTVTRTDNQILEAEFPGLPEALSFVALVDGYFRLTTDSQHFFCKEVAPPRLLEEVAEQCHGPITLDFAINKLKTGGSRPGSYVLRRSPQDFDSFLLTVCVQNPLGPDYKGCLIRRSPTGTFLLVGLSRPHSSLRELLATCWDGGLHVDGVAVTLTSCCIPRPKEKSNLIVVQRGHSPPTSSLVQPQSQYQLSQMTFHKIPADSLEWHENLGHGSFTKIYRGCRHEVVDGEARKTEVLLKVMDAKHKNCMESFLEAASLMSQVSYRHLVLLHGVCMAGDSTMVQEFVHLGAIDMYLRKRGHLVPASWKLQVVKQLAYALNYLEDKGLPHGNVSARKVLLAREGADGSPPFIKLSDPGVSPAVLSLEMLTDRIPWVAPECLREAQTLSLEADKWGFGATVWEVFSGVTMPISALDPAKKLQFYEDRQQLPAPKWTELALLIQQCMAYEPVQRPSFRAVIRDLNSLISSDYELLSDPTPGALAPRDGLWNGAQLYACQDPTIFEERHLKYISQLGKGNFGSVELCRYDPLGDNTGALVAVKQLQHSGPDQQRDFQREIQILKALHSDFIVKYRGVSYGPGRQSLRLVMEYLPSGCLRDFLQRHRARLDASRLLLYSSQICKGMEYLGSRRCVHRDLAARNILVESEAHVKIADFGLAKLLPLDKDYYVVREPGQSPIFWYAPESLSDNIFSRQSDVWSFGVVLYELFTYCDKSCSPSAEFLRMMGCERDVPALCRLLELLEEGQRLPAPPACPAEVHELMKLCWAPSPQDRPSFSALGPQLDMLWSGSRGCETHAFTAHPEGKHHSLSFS
Kind of assay: JAK3 Inhibition Assay. It counts as biochemical. As to conditions: 1 nM JAK3, 1 μM poly(Glu)4Tyr, 5 μM ATP, 25° C.; kind of constant not given. The protocol:
as §1, §2

The test system of another assay is mouse colitis model. Briefly: Mouse model for Crohn's disease and ulcerative colitis (CD4+CD25- T cell transfer into SCID mice). It counts as in vivo. As to conditions: compound no. 9 (methane sulfonic acid), 50, 100, 150 mpk b.i.d., oral gavage, days 19-33, SCID mice. How it is done: Female SCID mice received grafts of 2.5×10e5 CD4+CD25-T cells from naïve BALB/c wild type donors (all Charles River Laboratories) to induce colitis. On day 14, after cell transfer, the recipient SCID mice were tested for graft acceptance and mice without T cells removed from the study. On days 19-33, the recipient SCID mice were administered compound no. 9 (methane sulfonic acid) mixed with vehicle (1% HPMC-c5, 50 mM Na citrate, pH 3.0) in doses of 50, 100, and 150 mpk b.i.d. Control mice were administered either saline, vehicle (1% HPMC-c5, 50 mM Na citrate, pH 3.0), or 1 mpk dexamethasone, b.i.d. Doses were administered via oral gavage. On day 35, the mice were sacrificed.

Sequence of JAK2 (O60674 whole entry, species assumed): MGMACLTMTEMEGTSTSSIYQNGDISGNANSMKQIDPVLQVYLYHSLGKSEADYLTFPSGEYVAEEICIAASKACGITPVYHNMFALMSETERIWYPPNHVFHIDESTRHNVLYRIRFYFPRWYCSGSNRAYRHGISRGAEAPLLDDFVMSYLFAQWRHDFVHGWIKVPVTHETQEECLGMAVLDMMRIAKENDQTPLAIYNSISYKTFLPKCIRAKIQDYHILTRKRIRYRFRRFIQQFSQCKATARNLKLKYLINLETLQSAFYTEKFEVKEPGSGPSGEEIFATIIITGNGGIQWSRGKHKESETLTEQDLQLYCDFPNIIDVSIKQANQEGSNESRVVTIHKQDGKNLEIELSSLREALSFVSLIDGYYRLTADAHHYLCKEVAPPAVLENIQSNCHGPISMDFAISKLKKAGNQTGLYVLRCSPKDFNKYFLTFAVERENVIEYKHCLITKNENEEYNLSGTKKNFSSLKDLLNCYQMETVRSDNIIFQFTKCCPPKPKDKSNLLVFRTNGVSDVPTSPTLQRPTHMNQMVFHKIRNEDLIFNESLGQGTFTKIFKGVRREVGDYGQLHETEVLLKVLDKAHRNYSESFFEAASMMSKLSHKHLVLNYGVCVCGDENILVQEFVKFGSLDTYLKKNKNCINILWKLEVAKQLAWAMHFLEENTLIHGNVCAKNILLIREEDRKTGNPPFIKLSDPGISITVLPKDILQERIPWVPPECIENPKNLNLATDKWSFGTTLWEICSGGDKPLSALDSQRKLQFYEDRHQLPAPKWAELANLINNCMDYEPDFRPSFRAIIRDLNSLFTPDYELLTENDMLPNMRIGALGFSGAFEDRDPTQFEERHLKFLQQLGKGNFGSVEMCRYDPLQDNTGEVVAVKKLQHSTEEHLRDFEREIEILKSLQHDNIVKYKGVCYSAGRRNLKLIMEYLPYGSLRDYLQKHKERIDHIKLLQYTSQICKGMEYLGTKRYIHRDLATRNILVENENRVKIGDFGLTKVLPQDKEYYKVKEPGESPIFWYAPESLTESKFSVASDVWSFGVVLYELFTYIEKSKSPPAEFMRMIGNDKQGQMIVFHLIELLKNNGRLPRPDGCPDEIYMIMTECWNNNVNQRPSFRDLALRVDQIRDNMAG

Regarding `CC(C)(Nc1ccnc(-c2c[nH]c3ncccc23)n1)C(=O)NCC(F)(F)F` [compound 2], the “JAK2 (μM), inhibition data” value on JAK2 stood at 0.028 µM. Moreover, the “JAK3 (μM), inhibition data” value at JAK3 turned out to be 0.0032 µM.
With `CC[C@@](C)(Nc1ccnc(-c2c[nH]c3ncc(Cl)cc23)n1)C(=O)NCC(F)(F)F` [compound 16], the “JAK2 (μM), inhibition data” value at JAK2 is 0.01 µM. Also, the “JAK3 (μM), inhibition data” value on JAK3 is 0.002 µM.
For `CC(C)(Nc1nc(-c2c[nH]c3ncccc23)ncc1F)C(=O)NCC(F)(F)F` [compound 4], the “JAK2 (μM), inhibition data” value on JAK2 turned out to be 0.091 µM. Further, on JAK3, the “JAK3 (μM), inhibition data” value was 0.0056 µM.
As for `CC(C)(Nc1ccnc(-c2c[nH]c3ncc(Cl)cc23)n1)C(=O)NCC(F)(F)F` [Compound No. 9], on JAK2, the “JAK2 (μM), inhibition data” value was 0.001 µM. Further, the “JAK3 (μM), inhibition data” value at JAK3 is 0.001 µM. For the same molecule, in the assay with mouse colitis model, the colon histology result is recorded as “Improvements”, the colon pathology entry is “improved” and the “frequency of splenic CD4+ T cells” value was “significant reduction”. Further, the inflammatory cytokine production entry in the assay on mouse colitis model (colon tissue) was “improved”.
With `CC[C@](C)(Nc1ccnc(-c2c[nH]c3ncc(Cl)cc23)n1)C(=O)NCC(F)(F)F` [compound 14], the “JAK2 (μM), inhibition data” value at JAK2 was 0.002 µM. Also, the “JAK3 (μM), inhibition data” value on JAK3 is 0.003 µM.
In the case of `CC(C)[C@](C)(Nc1ccnc(-c2c[nH]c3ncc(Cl)cc23)n1)C(=O)NCC(F)(F)F` [compound 18], the “JAK2 (μM), inhibition data” value on JAK2 amounted to 0.0007 µM. Also, the “JAK3 (μM), inhibition data” value on JAK3 turned out to be 0.001 µM.
As to `CC(C)[C@](C)(Nc1ccnc(-c2c[nH]c3ncccc23)n1)C(=O)NCC(F)(F)F` [compound 5], on JAK2, the “JAK2 (μM), inhibition data” value turned out to be 0.0042 µM. Also, the “JAK3 (μM), inhibition data” value on JAK3 was 0.0024 µM.
In the same order, the values of `CC(C)(Nc1nc(-c2c[nH]c3ncc(Cl)cc23)ncc1F)C(=O)NCC(F)(F)F` [compound 19] are 0.001 µM and 0.004 µM.
On to `CC[C@@](C)(Nc1nc(-c2c[nH]c3ncc(Cl)cc23)ncc1F)C(=O)NCC(F)(F)F` [compound 12], for which the “JAK2 (μM), inhibition data” value at JAK2 turned out to be 0.037 µM. For the same molecule, the “JAK3 (μM), inhibition data” value on JAK3 was determined as 0.006 µM.
Regarding `CC[C@](C)(Nc1nc(-c2c[nH]c3ncc(Cl)cc23)ncc1F)C(=O)NCC(F)(F)F` [compound 15], the “JAK2 (μM), inhibition data” value on JAK2 was 0.001 µM. At JAK3, the “JAK3 (μM), inhibition data” value came to 0.002 µM.
Consider `CC[C@@](C)(Nc1ccnc(-c2c[nH]c3ncccc23)n1)C(=O)NCC(F)(F)F` [compound 1], for which the “JAK2 (μM), inhibition data” value at JAK2 is 0.015 µM. Further, the “JAK3 (μM), inhibition data” value on JAK3 stood at 0.003 µM.
`CC[C@](C)(Nc1nc(-c2c[nH]c3ncccc23)ncc1F)C(=O)NCC(F)(F)F` [compound 3]: the “JAK2 (μM), inhibition data” value at JAK2 stood at 0.028 µM. Moreover, the “JAK3 (μM), inhibition data” value at JAK3 is 0.0042 µM.
In the case of `CC(C)[C@@](C)(Nc1nc(-c2c[nH]c3ncc(Cl)cc23)ncc1F)C(=O)NCC(F)(F)F` [compound 11], the “JAK2 (μM), inhibition data” value at JAK2 is 0.055 µM. In addition, on JAK3, the “JAK3 (μM), inhibition data” value worked out at 0.006 µM.
Consider `CCNC(=O)C(C)(C)Nc1ccnc(-c2c[nH]c3ncc(Cl)cc23)n1` [compound 17], for which, on JAK2, the “JAK2 (μM), inhibition data” value worked out at 0.003 µM. Besides, the “JAK3 (μM), inhibition data” value at JAK3 stood at 0.001 µM.
For `CCNC(=O)C(C)(C)Nc1ncnc(-c2c[nH]c3ncccc23)n1` [compound 8], the “JAK2 (μM), inhibition data” value at JAK2 was determined as 0.083 µM. Besides, the “JAK3 (μM), inhibition data” value on JAK3 worked out at 0.019 µM.
In the case of `CC(C)[C@](C)(Nc1nc(-c2c[nH]c3ncc(Cl)cc23)ncc1F)C(=O)NCC(F)(F)F` [compound 10], the “JAK2 (μM), inhibition data” value on JAK2 came to 0.001 µM. At JAK3, the “JAK3 (μM), inhibition data” value worked out at 0.002 µM.
In the case of `CC(C)(Nc1ncnc(-c2c[nH]c3ncc(Cl)cc23)n1)C(=O)NCC(F)(F)F` [compound 13], at JAK2, the “JAK2 (μM), inhibition data” value was determined as 0.003 µM. Moreover, at JAK3, the “JAK3 (μM), inhibition data” value was found to be 0.001 µM.
With `CCN(C)C(=O)[C@](C)(CC)Nc1ccnc(-c2c[nH]c3ncccc23)n1` [compound 7], at JAK2, the “JAK2 (μM), inhibition data” value turned out to be 0.056 µM. In addition, on JAK3, the “JAK3 (μM), inhibition data” value was 0.018 µM.
As for `CC(C)(Nc1ncnc(-c2c[nH]c3ncccc23)n1)C(=O)NCC(F)(F)F` [compound 6], the “JAK2 (μM), inhibition data” value at JAK2 worked out at 0.046 µM. Also, the “JAK3 (μM), inhibition data” value on JAK3 is 0.0045 µM.
